{"source": "paper PMC12461628", "about": "“Tolerogenic antigen-specific vaccine induces VISTA-enriched regulatory T cells and protects against arthritis in DRB1∗04:01 mice” (Molecular Therapy, 2025)", "assay": "IL-17A ELISpot, lymph node cells after DTH", "type": "cell-based, mouse", "conditions": "ConA 1 μg/mL, 48 h, 37°C", "protocol": "For T cell recall assays, 1 × 10^6 lymph node cells per/well were plated in anti-IL17A (TC11-18H10.1, 5 μL, Mabtech)-coated plates (Merck Millipore, #MSIPS4W10), stimulated with denatured bCOL2 (30 μg/mL), and incubated for 48 h at 37°C. Positive controls consisted of lymph node cells stimulated with Concanavalin A (ConA; 1 μg/mL, Sigma), while negative controls comprised unstimulated cells in complete medium only. Bound IL-17A was detected with anti-IL17A (TC11-8H4, 1 μg/mL, Mabtech) followed by streptavidin-conjugated alkaline phosphatase. The spots were developed using the substrate BCIP/Nitroblue Tetrazolium (Sigma). Scanned wells (ImmunoScan) were analyzed with ImmunoSpot software (Cellular Technology)."}
{"substance": "Concanavalin A [ConA]", "values": [{"measurement": "IL-17A ELISpot signal, positive control", "result": "exceeds 600 SFC/10^6 cells"}]}
